# Experimental data taken from US20240215577A1, “FUNGICIDAL PYRIDONES” (FMC Corporation, priority 2021, published 2024).
# Tests used:
# Alternaria solani = experiment: Test F: tomato early blight, preventive spray on tomato seedlings; assay type: in vivo; details: 50 ppm, 100 = 100% disease control, 0 = no control; for pest or weed control at 50 ppm: Alternaria solani, read-out: Test F disease control rating
# In short: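 Compounds in acetone/water (50/50) with 250 ppm PEG400 were sprayed to run-off on tomato seedlings and inoculated with Alternaria solani spores the next day. Plants were held in saturated humidity at 27° C for 48 h, then at 20° C for 3 days. Disease control was rated visually, 0–100, against controls.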
# [1] = test system: Puccinia recondita f. sp. tritici; experiment: Test B: wheat leaf rust, preventive spray on wheat seedlings; assay type: in vivo; details: 50 ppm, 100 = 100% disease control, 0 = no control; for pest or weed control at 50 ppm: Puccinia recondita, read-out: Test B disease control rating
# In short: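 Wheat seedlings sprayed to run-off with compound suspended at set ppm in 50/50 acetone/water (3% acetone pre-dissolution, 250 ppm PEG400); inoculated with rust spores next day. Held 24 h saturated at 20° C., then 7 days in growth chamber at 20° C.; visual rating, 0–100% disease control versus controls.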
# Botrytis cinerea = experiment: Test E: tomato Botrytis, preventive spray on tomato seedlings; assay type: in vivo; details: 50 ppm, 100 = 100% disease control, 0 = no control; for pest or weed control at 50 ppm: Botrytis cinerea, read-out: Test E disease control rating
# In short: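 Compounds dissolved in acetone (3% of final volume), suspended in 50/50 acetone/water with 250 ppm PEG400, sprayed to run-off on seedlings. Spore inoculation next day; 48 h saturated atmosphere at 20° C, then 3 days at 24° C. Visual disease rating 0–100% control relative to controls.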
# Phakopsora pachyrhizi = experiment: Test D: Asian soybean rust, preventive spray on soybean seedlings; assay type: in vivo; details: 50 ppm, 100 = 100% disease control, 0 = no control; for pest or weed control at 50 ppm: Phakopsora pachyrhizi, 216 h, read-out: Test D disease control rating
# In short: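 Soybean seedlings sprayed to run-off with compound suspension (ppm, in 50/50 acetone/water with 250 ppm PEG400), inoculated next day with P. pachyrhizi spores, held 24 h saturated at 22°C then 8 days at 22°C. Visual rating 0-100% disease control relative to controls.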
# [2] = test system: Blumeria graminis f. sp. tritici; experiment: Test C: wheat powdery mildew, preventive spray on wheat seedlings; assay type: in vivo; details: 50 ppm, 100 = 100% disease control, 0 = no control; for pest or weed control at 50 ppm: Blumeria graminis, read-out: Test C disease control rating
# In short: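 Preventive assay: wheat seedlings sprayed to run-off with compound at the stated ppm (acetone/water 50/50, 250 ppm PEG400), dusted with B. graminis f. sp. tritici spores the following day, then kept 8 days at 20°C. Disease control visually scored 0-100 versus controls.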
# Zymoseptoria tritici = experiment: Test A: wheat leaf blotch, preventive spray on wheat seedlings; assay type: in vivo; details: 50 ppm, 100 = 100% disease control, 0 = no control; for pest or weed control at 50 ppm: Zymoseptoria tritici, read-out: Test A disease control rating
# In short: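 Wheat seedlings were sprayed to run-off with compound in acetone/water 50/50 containing 250 ppm PEG400 and inoculated with Z. tritici spores the next day. Plants were held 48 h saturated at 24 °C, then 17 days at 20 °C. Disease was rated 0–100% control relative to controls.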
SMILES,pest or weed control at 50 ppm (Alternaria solani) [%],melting point [°C],pest or weed control at 50 ppm [1] [%],pest or weed control at 50 ppm (Botrytis cinerea) [%],pest or weed control at 50 ppm (Phakopsora pachyrhizi) [%],pest or weed control at 50 ppm [2] [%],pest or weed control at 50 ppm (Zymoseptoria tritici) [%],Test F disease control rating (Alternaria solani) [%],Test B disease control rating [1] [%],Test E disease control rating (Botrytis cinerea) [%],Test D disease control rating (Phakopsora pachyrhizi) [%],Test C disease control rating [2] [%],Test A disease control rating (Zymoseptoria tritici) [%]
"COc1cc(OC)c(Br)c(-c2cn(C)c(=O)c(Cl)c2-c2ccc(F)cc2F)c1 [Compound 9, 5-(2-bromo-3,5-dimethoxyphenyl)-3-chloro-4-(2,4-difluorophenyl)-1-methyl-2(1H)-pyridinone]",100,211 to 214,100,98,100,99,100,–,–,–,–,–,–
"COc1cc(OC)c(Cl)c(-c2cn(C)c(=O)c(C)c2-c2ccc(F)cc2Cl)c1 [Compound 13, 5-(2-chloro-3,5-dimethoxyphenyl)-4-(2-chloro-4-fluorophenyl)-1,3-dimethyl-2(1H)-pyridinone]",100,140 to 143,100,94,100,100,100,–,–,–,–,–,–
"COc1ccc(Br)c(-c2cn(C)c(=O)c(Cl)c2-c2ccc(F)cc2F)c1 [Compound 20, 5-(2-bromo-5-methoxyphenyl)-3-chloro-4-(2,4-difluorophenyl)-1-methyl-2(1H)-pyridinone]",99,227 to 230,100,98,97,98,100,–,–,–,–,–,–
COc1ccc(Cl)c(-c2cn(C)c(=O)cc2-c2ccc(C#N)cc2Cl)c1 [Compound 59],–,–,–,–,–,–,–,0,92,95,0,0,99
Cc1cc(F)ncc1-c1cn(C)c(=O)c(Cl)c1-c1ccc(F)cc1Cl [Compound 60],–,–,–,–,–,–,–,40,95,97,65,73,99
COc1ccc(Cl)c(-c2cn(C)c(=O)c(Cl)c2-c2ccccc2F)c1 [Compound 61],–,–,–,–,–,–,–,100,100,98,94,89,100
COc1ccc(Cl)c(-c2cn(C)c(=O)cc2-c2ccccc2Br)c1 [Compound 62],–,–,–,–,–,–,–,0,74,98,0,0,37
Cc1ccsc1-c1cn(C)c(=O)c(Cl)c1-c1ccc(F)cc1Cl [Compound 63],–,–,–,–,–,–,–,0,80,88,0,0,84
COc1ccc(Cl)c(-c2cn(C)c(=O)c(Cl)c2-c2cccc(F)c2F)c1 [Compound 64],–,–,–,–,–,–,–,100,100,96,87,87,98
COc1ccc(Cl)c(-c2cn(C)c(=O)cc2-c2cccc(F)c2F)c1 [Compound 65],–,–,–,–,–,–,–,0,95,96,0,0,8
Cn1cc(-c2cccc([N+](=O)[O-])c2)c(-c2ccc(F)cc2Cl)c(Cl)c1=O [Compound 66],–,–,–,–,–,–,–,0,80,79,0,0,42
COc1ccc(-c2cc(=O)n(C)cc2-c2cc(OC)ccc2Cl)c(Cl)c1 [Compound 68],–,–,–,–,–,–,–,73,98,88,0,0,61
COc1ccc(-c2c(-c3cc(OC)ccc3Cl)cn(C)c(=O)c2Cl)c(Cl)c1 [Compound 69],–,–,–,–,–,–,–,100,100,98,79,99,100
COc1ccc(Cl)c(-c2cn(C)c(=O)cc2-c2ccccc2C(F)(F)F)c1 [Compound 70],–,–,–,–,–,–,–,0,68,93,0,83,50
COc1ccc(Cl)c(-c2cn(C)c(=O)c(Cl)c2-c2ccc(F)cc2Br)c1 [Compound 71],–,–,–,–,–,–,–,99,100,96,73,100,100
CCn1cc(-c2cc(OC)ccc2Cl)c(-c2ccc(F)cc2Cl)c(Cl)c1=O [Compound 75],–,–,–,–,–,–,–,0,97,98,0,0,97
CCCn1cc(-c2cc(OC)ccc2Cl)c(-c2ccc(F)cc2Cl)c(Cl)c1=O [Compound 76],–,–,–,–,–,–,–,0,55,96,0,0,63
C=CCn1cc(-c2cc(OC)ccc2Cl)c(-c2ccc(F)cc2Cl)c(Cl)c1=O [Compound 77],–,–,–,–,–,–,–,0,74,91,0,0,40
